Results from US20260263361A1, “CANNABIDIOL AQUEOUS SOLUTION COMPOSITION AND CANNABIDIOL-CONTAINING PHARMACEUTICAL PREPARATION COMPRISING SAME” (priority 2023, published 2026).

Columns and labels:
[1] = Long-term stability of CBD-containing film: CBD content by HPLC after storage under harsh conditions; assay type: physicochemical
Description: The long-term stability of the orally disintegrating film of Example 2, having the composition of Table 6, was evaluated.
For comparison, the long-term stability of CBD in the orally disintegrating film containing CBD-prepared according to the composition shown in Table 7 and corresponding to Korean Patent Application No. 10-2019-0097649—was evaluated as Comparative Example 2.
Immediately after film formation, the films were packaged in airtight containers and left under harsh conditions for 0, 24, and 72 hours, after which the CBD content was analyzed by high-performance liquid chromatography (HPLC).
Additionally, further experiments were conducted to increase the stability of the orally disintegrating film of the current Example 2.

[2] = Primary solubilizer mixed with an additional solubilizer, extent of CBD dissolution observed; assay type: physicochemical
Description: Due to the compatibility required between ingredients for use in the CBD aqueous solution formulation, additional solubilizerswere mixed with the selected primary components, and the extent of CBD dissolution was evaluated.

Structure (SMILES) | Decrease (24 hrs, %) ([1]; 24 hrs vs 0 hr) | CBD content 0 hr ([1]; airtight container, 0 hr, HPLC) | CBD content 24 hr ([1]; airtight container, 24 hr, HPLC) | state of CBD in aqueous solution (FIG. 1) [2]
C=C(C)[C@@H]1CCC(C)=C[C@H]1c1c(O)cc(CCCCC)cc1O [CBD isolate powder, 2-[(1R,6R)-3-methyl-6-(1-methylethenyl)-2-cyclohexen-1-yl]-5-pentyl-1,3-benzenediol] | 0.28% | 103.58 | 103.86 | 
OCC(O)CO [Glycerin] |  |  |  | not dissolved and appeared as precipitate or crystals
